Measured values published in ChEMBL document CHEMBL1139661, “Arylaminoethyl amides as noncovalent inhibitors of cathepsin S. Part 2: Optimization of P1 and N-aryl” (Bioorg Med Chem Lett, 2006).

Key:
Type in all cases: ADME, organism-based
[1] = Cmax in Wistar rat at 10 mg/kg, po; set-up: dose 10 mg/kg, route oral; conditions: in vivo
[2] = Oral bioavailability in Wistar rat at 10 mg/kg, po; conditions: in vivo
[3] = AUC in Wistar rat at 10 mg/kg, po; set-up: dose 10 mg/kg, route oral; conditions: plasma
[4] = (§1) Half life in Wistar rat at 10 mg/kg; set-up: dose 10 mg/kg; conditions: Wistar, in vivo
Rattus norvegicus = assay: as §1; set-up: dose 10 mg/kg; conditions: in vivo

Row | Structure (SMILES) | Cmax [1] [nM] | bioavailability [2] [%] | AUC [3] [ng·h/mL] | half-life [4] [min] | T1/2 (Rattus norvegicus)
1 | COc1cccc(C(=O)N[C@@H](CC(C)(C)C)C(=O)N[C@@H](CC(=O)O)CN2CCc3cc(F)ccc32)c1 | 45 | 2 | 100 | 33.6 | 
2 | CCOC(=O)C[C@@H](CN1CCc2cc(F)ccc21)NC(=O)[C@H](CCC1CCCCC1)NC(=O)c1cccc(OC)c1 | 293 | 8 | 308 |  | Not Active
